Our source for the IC50 values is PMC8761492 (Life Science Alliance, 2022).

The test has as its system SARS-CoV-2 B.1.1.7. The experiment in a line: microbe, parasite or virus in culture. To be noted: Severe acute respiratory syndrome coronavirus 2, Caco-2, pretreated 2 h, 24 h, mean ± SEM. In kind it is cell-based.

For orientation: IC50 means the point on the concentration scale where inhibition reaches its midpoint.

Take `CCC(CC)COC(=O)[C@H](C)N[P@](=O)(OC[C@H]1O[C@@](C#N)(c2ccc3c(N)ncnn23)[C@H](O)[C@@H]1O)Oc1ccccc1` [Remdesivir]: the IC50 came to 0.023 µM.
